The target in one series is T1, Cytochrome P450 1A2 (Homo sapiens, UniProt P05177).
T1 sequence (P05177 whole entry): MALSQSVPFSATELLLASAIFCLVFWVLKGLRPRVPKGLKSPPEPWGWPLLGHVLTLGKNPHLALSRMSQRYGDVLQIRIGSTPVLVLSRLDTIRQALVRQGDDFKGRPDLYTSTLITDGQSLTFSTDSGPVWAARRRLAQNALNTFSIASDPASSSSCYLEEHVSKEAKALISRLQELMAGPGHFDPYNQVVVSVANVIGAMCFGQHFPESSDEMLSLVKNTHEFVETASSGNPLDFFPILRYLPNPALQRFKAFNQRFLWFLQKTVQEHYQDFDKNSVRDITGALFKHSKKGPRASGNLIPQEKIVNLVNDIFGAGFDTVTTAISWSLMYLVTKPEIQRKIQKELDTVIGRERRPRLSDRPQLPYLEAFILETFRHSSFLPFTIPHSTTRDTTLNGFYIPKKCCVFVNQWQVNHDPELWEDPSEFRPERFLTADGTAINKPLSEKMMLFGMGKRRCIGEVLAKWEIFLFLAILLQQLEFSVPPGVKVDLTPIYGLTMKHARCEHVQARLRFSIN
The series is described as follows: Inhibition of human CYP1A2 expressed in Escherichia coli DH5-alpha. Type of series: ADME.

Series [1] addresses Methionine aminopeptidase 2 (Homo sapiens, UniProt P50579). Kind of series: Inhibition of MetAP2 in HUVEC assessed as accumulation of N-Met-14-3-3gamma after 24 hrs by Western blot method. Type of series: cell-based. (In western blotting, separated proteins are transferred to a membrane and probed.)
Series [2] is described as follows: Volume of distribution in diet-induced obese mouse at 5 mg/kg, po or 1 mg/kg, iv. Type of series: ADME, organism-based. The following applies: in vivo.
Series [3] can be described thus: Half life in diet-induced obese mouse at 5 mg/kg, po or 1 mg/kg, iv. The following applies: in vivo. The class given is ADME, organism-based.
The test system of series [4] is Mus musculus. The series is described as follows: Antiobesity activity in po dosed diet-induced obese mouse assessed as body weight loss administered as qd for 28 days. Type of series: functional, organism-based.
The test system of series [5] is Mus musculus. Kind of series: AUC in diet-induced obese mouse at 5 mg/kg, po. The class given is ADME, organism-based. The following applies: in vivo.
Series [6] relates to Mus musculus. The series is described as follows: Oral bioavailability in diet-induced obese mouse at 5 mg/kg. Type of series: ADME, organism-based. The following applies: in vivo.

Where only a bound is given, the exact number is not on record here.

Chain of Methionine aminopeptidase 2 (P50579 whole entry): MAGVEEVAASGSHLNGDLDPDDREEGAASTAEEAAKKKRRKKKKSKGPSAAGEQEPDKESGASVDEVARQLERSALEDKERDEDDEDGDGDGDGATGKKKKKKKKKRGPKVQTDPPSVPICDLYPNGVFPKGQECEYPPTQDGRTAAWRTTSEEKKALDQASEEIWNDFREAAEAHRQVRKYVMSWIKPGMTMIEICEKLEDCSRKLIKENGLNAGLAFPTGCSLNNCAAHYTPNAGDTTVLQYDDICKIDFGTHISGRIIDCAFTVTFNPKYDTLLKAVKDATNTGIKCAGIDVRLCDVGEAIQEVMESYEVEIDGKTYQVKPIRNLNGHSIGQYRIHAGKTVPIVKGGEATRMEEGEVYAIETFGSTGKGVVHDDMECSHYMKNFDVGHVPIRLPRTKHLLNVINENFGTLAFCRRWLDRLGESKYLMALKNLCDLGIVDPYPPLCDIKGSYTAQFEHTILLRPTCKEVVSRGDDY

For orientation: IC50 means the concentration at which inhibition is half-maximal. `Cc1cc(C(=O)NCCO)ncc1-c1cc(C(F)(F)F)cc2[nH]ncc12` showed an IC50 on Cytochrome P450 1A2 greater than 50.1 µM.
Same read-out and setting: the figure for `COc1cc(C(=O)NCCO)ccc1-c1cc(C(F)(F)F)cc2[nH]ncc12` is greater than 50.1 µM.
The same measure, in the same setting: the figure for `CNC(=O)c1ccc(-c2cc(C(F)(F)F)cc3[nH]ncc23)c(OC)c1` is 15.8 µM; for `FC(F)(F)c1cc(-c2ccc3nccn3c2)c2cn[nH]c2c1` it is 0.316 µM; for `O=C(NCCO)c1ccc(-c2cc(C(F)(F)F)cc3[nH]ncc23)c(F)c1` it is greater than 50.1 µM.
As a reminder, the EC50 is the concentration needed to bring the measured effect to its halfway point. Compound `Cc1nc(N2CC[C@H](O)C2)ncc1-c1cc(C(F)(F)F)cc2[nH]ncc12` showed an IC50 at Cytochrome P450 1A2 greater than 50.1 µM. Moreover, the EC50 in series [1] amounted to 0.121 µM.
For orientation: half-life means the time needed for the level to fall by half in the phase considered. Low values mean fast loss, high ones slow loss. One may read the AUC as concentration integrated over time. For the compound `Cc1nc(N2CC[C@@H](O)C2)ncc1-c1cc(C(F)(F)F)cc2[nH]ncc12` [TP-004], in series [2], the Vd is 1.25 L/kg. In addition, in series [3], the half-life was 2 h. Also, the Activity result with Mus musculus [4] was “Dose-dependent effect”. Further, the area under the curve (AUC) in the series on Mus musculus [5] is 15084 ng·h/mL. Further, the F in the series with Mus musculus [6] was determined as 58%. The IC50 at Cytochrome P450 1A2 was greater than 50.1 µM. The EC50 in series [1] worked out at 0.015 µM.

For the origin of these results see ChEMBL document CHEMBL3797158, “Discovery of potent, reversible MetAP2 inhibitors via fragment based drug discovery and structure based drug design-Part 1” (Bioorg Med Chem Lett, 2016).
